Assay: pH of peptide solutions in DMSO/D5W, with succinate, and with Hiltonol
Format: physicochemical
Conditions: not given

pH of peptides in DMSO/D5W | pH of peptides in DMSO/D5W/5mM S. Succinate spike | pH of peptides in DMSO/D5W/5nnM Succinate and Hiltonol | Molecule
3.99 | 6.46 | 6.88 | H-ALSLTPGLRIGPSGLFLVFLAESAVDKGHPNRS-OH [CS7410]
3.95 | – | – | H-GTYLQGTASALSQSQERPPSVNRVPPSSPSSQE-OH [CS6725]
3.8 | 6.45 | 6.69 | H-KKNITNLSRLVVRPDTDAVY-OH [CS7431]
4.24 | 6.61 | 6.96 | H-LRVFIGNIAVNHAPVSLRPGLGLPPGAPPGTVP-OH [CS7412]
3.65 | – | – | H-EPDQEAVQSSTYKDCNTLHLPTERFSPVR-OH [CS6710]
4.11 | – | – | H-PPYPYSSPSLVLPTEPHTPKSLQQPGLPS-OH [CS6715]
3.84 | 6.38 | 6.56 | H-IGALNPKRAAFFAEHYESWE-OH [CS7420]
3.86 | 6.32 | 6.62 | H-LLTDRNTSGTTFTLLGVSDYPELQVP-OH [CS7409]
3.87 | – | – | H-PIQVFYTKQPQNDYLHVALVSVFQIHQEAPSSQ-OH [CS6729]
4.24 | 6.78 | 6.96 | H-LPVFIGNIAVNHAPVSLRPGLGLPPGAPPGTVP-OH [CS7438]
3.95 | 6.23 | 6.37 | H-PLMQTELHQLVPEADPEEMA-OH [CS7430]
3.82 | 6.28 | 6.5 | H-AESAQRQGPLGGGEQSANEF-OH [CS7417]
3.82 | – | – | H-RGLHSQGLGRGRIAMAQTAGVLRSLEQEE-OH [CS6711]
3.72 | 6.22 | 6.45 | H-WDGPPENDMLLKEICGSLIP-OH [CS7432]
3.87 | 6.51 | 6.76 | H-SGQPAPEETVLFLGLLHGLLLILRRLRGG-OH [CS6937]
3.81 | 6.71 | 6.99 | H-KGASLDAGWGSPRWTTTRMTSASAGRSTRA-OH [CS7414]
3.9 | 6.73 | 7.02 | H-VQLSIQDVIRRARLSTVPTAQRVALRSGWI-OH [CS7413]
3.89 | 6.31 | 6.75 | H-LLTDRNTSGTTFTLLGVSDYPELQVPIPQAGLG-OH [CS7408]
3.94 | – | – | H-SKLPYPVAKSGKRALARGPAPTEKTPHSGAQLG-OH [CS6719]

Assay: physchem
Conditions: pH 6

solubility [mg/mL] | Molecule
> 2 | H-STLPVISDSTTKRRWSALVIGL-OH
> 2 | H-RRGGALFASRPRFTPL-OH
> 2 | H-KGEKNGMTFSSTKDYVNNV-OH
> 2 | H-SLRNNMFEISDRFIGIYKTYNITK-OH
< 2 | H-VARNYLREAVSHNASLEVAILRD-OH
> 2 | H-LEEVAQRSHAVRSPGSPLILEVG-OH
< 2 | H-DVGVNSLQQYYLSPDLHFSLIQKENLD-OH
< 2 | H-NNGPVTILQRIHHMAASHVNITS-OH
> 2 | H-GAVGATKVPRNQDWL-OH
> 2 | H-AALCPASRALEEKKGNYV-OH
> 2 | CC(C)C[C@H](NC(=O)[C@H](C)N)C(=O)N[C@@H](CCC(=O)O)C(=O)N[C@@H](CCC(=O)O)C(=O)N[C@@H](CCCCN)C(=O)N[C@@H](CCCCN)C(=O)NCC(=O)N[C@@H](CC(N)=O)C(=O)N[C@@H](Cc1ccc(O)cc1)C(=O)N[C@H](C(=O)N[C@H](C(=O)N[C@H](C(=O)N[C@@H](CC(=O)O)C(=O)N[C@@H](Cc1c[nH]cn1)C(=O)NCC(=O)N[C@@H](CO)C(=O)N[C@@H](CS)C(=O)N[C@H](C(=O)O)C(C)C)[C@@H](C)O)C(C)C)C(C)C
> 2 | H-EQGPWQSEGQTWRAAGGRVPVPCPAAGPG-OH
< 2 | H-EAAFSVGATGIITDYPTALRHYLDNHG-OH
< 2 | H-TLKEEVNELQYRQKQLELLITNLMRQVD-OH
> 2 | H-PSTANYNSFSSAPMPQIPVASVTPT-OH
< 2 | H-DVTYDGHPVLGSPYTVEASL-OH
> 2 | H-SHLASLKNNVSPVLRSHSFSDPSPKFA-OH
> 2 | H-DNHLRRNRLIVVDLFHGQL-OH
< 2 | H-NHSAKFLKELTLAMDELEENFRG-OH
> 2 | H-YPEPQNKEAFVHSQMYSTDYDQI-OH
> 2 | H-PENDDLFMMPRIVDVTSLATEGG-OH
> 2 | H-PASAKSRREFDKIELAYRR-OH
> 2 | H-MSQDIKKADEQIESMTYSTERKT-OH
> 2 | H-LPVFIGNIAVNHAPVSLRPGLGLPPGAPPGTVP-OH
> 2 | H-GPLQLPVTRKNMPLPGVVKLPPLPGS-OH
> 2 | H-SKRGVGAKTLLLPDPFLFWPCLEGTRRSL-OH

solubility [mg/mL] | Molecule
< 2 | H-LRVFIGNIAVNHAPVSLRPGLGLPPGAPPGTVP-OH
> 2 | H-AQRKLYQDVMHENFTNLLSVGHQP-OH
> 2 | H-DGGRQHSGPRRHSGAGPKPSSSEWAVCWAP-OH
> 2 | H-DRSVLAKKLKFVTLVFRHGDRSPID-OH
> 2 | H-MPPPGALMGLALKKKSIPQPTN-OH
< 2 | H-SVLREDLGQLEYKYQYAYFRMGIKHPD-OH
> 2 | H-IAMGFPQKDLKAYTGTIL-OH
> 2 | H-GSGSQMPAWRTRGAISASSTQKTPTTRL-OH
> 2 | H-DSAVDKGHPNRSALSLTPGLRIGPSGLFLVFLA-OH
> 2 | H-VPDINMEKKLRKIRAQTQKHLDLYARDG-OH
> 2 | H-GRMSPSQFARVPGYVGSPLAAMNPK-OH
> 2 | H-VEQGHVRVGPDVVTHPAFLV-OH
> 2 | H-AAVRPEQRPAARGSRV-OH
< 2 | H-TISLLLIFYNTKEIARTEEHQE-OH
> 2 | H-KLAWRGRISSSGCPSMTSPPSPMFGMTLHT-OH
> 2 | H-PAHPSQGAVPPSRAAAEPHLKPSPSELQTA-OH
> 2 | H-WTPAAPTAMAEVGPGHTPAHPSQGAVPP-OH
< 2 | H-SMWKGELYRQNRFASSKESAKLYGS-OH
< 2 | H-LTKLKFSLKKSFNFFDEYF-OH
> 2 | H-LMGRLQHTFKQKMTGVGASLEKR-OH
< 2 | H-DHAPEFPAREMLLKYQKLLCQERYFL-OH
> 2 | H-HRPRPFSPGKQVSSAPLFMLDLYN-OH
> 2 | H-STEVEPKESPHLARHRHLMKTLVKSLST-OH
> 2 | H-FYSNSTVSETQWKVTVTPR-OH
> 2 | H-WDGPPENDMLLKEICGSLIP-OH
> 2 | H-VNGISSQPQVPFYPNLQKSQYYSTV-OH

— US20190060428A1, “FORMULATIONS FOR NEOPLASIA VACCINES AND METHODS OF PREPARING THEREOF” (The Broad Institue Inc., priority 2015, published 2019)
